Measured values reported in patent publication US20200291018A1, “TAM KINASE INHIBITORS” (SYROS PHARMACEUTICALS, INC., priority 2017, published 2020).

Tests used:
FLT3 = biological target: T1, FLT3 (Homo sapiens, UniProt P36888); assay: TR-FRET kinase activity assay, FLT3; assay type: biochemical; conditions: ATP at Km, 60 minutes
T1 sequence (P36888 27-993): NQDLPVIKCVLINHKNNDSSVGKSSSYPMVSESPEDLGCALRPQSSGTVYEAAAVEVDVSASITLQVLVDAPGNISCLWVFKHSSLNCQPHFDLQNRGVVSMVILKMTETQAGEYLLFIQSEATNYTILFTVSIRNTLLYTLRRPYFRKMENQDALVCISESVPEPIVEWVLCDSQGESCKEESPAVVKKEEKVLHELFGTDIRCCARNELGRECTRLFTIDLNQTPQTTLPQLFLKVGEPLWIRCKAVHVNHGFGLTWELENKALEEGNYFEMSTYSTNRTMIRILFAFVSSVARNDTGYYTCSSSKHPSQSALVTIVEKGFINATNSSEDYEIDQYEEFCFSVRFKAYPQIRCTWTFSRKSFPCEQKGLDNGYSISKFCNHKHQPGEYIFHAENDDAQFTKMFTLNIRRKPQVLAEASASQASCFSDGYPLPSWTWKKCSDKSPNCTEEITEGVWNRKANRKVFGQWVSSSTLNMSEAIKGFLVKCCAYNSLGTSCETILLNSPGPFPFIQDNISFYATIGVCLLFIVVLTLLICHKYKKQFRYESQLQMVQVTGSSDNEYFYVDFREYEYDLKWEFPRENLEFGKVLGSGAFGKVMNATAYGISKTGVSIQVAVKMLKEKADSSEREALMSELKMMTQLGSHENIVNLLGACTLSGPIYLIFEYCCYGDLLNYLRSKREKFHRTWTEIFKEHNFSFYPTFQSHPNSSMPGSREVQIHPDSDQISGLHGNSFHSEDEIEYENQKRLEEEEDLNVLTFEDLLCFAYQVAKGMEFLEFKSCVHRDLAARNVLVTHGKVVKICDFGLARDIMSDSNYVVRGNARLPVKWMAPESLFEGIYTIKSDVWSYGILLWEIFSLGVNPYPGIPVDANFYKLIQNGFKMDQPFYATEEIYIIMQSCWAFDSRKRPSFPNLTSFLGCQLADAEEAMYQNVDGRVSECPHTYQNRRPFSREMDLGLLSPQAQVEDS
How it was run: (§1)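 Enzyme, fluorescent-labeled peptide substrate and compound were mixed, then ATP was added at each enzyme's Km. Buffer was 50 mM HEPES pH 7.5, 10 mM MgCl2, 1 mM EGTA, 0.01% Brij 35, 1 mM DTT at RT. After 60 min, EDTA quench and 30 min with Eu-anti-phosphotyrosine-site antibody; TR-FRET read gave IC50.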

MERTK = biological target: T2, MERTK (Homo sapiens, UniProt Q12866); assay: TR-FRET kinase activity assay, MERTK; assay type: biochemical; conditions: for IC50: TR-FRET activity assay, ATP at Km, 60 minutes, read-out: Mer IC50; for Mer/Flt3 ratio (FLT3 IC50/Mer IC50): ratio calculated as FLT3 IC50/Mer IC50
T2 sequence (Q12866 21-999): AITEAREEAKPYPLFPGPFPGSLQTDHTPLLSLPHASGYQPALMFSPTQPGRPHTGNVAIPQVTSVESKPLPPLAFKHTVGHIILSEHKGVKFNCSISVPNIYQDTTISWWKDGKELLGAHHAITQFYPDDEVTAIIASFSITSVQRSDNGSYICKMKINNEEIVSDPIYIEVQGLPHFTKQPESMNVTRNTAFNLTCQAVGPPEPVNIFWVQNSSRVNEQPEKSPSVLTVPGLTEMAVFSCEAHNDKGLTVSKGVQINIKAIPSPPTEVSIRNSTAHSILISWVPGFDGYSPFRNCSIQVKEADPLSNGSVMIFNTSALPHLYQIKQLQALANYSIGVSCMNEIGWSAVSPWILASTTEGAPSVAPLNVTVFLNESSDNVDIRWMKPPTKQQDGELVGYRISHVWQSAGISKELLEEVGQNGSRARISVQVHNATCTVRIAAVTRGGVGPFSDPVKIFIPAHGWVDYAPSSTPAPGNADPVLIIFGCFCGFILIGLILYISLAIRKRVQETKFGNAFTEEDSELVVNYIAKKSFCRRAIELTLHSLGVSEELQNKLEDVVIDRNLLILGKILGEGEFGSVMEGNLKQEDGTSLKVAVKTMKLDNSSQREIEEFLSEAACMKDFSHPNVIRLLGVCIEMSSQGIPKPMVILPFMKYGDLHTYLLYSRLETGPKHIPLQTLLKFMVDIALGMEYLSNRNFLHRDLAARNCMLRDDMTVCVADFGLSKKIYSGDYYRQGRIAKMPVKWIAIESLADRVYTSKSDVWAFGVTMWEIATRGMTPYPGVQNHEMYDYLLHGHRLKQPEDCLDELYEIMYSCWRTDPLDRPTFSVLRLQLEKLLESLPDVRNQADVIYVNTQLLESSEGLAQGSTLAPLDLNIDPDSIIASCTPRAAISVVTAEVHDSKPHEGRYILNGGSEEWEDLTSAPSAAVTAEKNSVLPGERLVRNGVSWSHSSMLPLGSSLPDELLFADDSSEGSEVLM
How it was run: as §1

Structure (SMILES) | IC50 (FLT3) | IC50 (MERTK) | Mer/Flt3 ratio (FLT3 IC50/Mer IC50) (MERTK)
CCC[C@@H](C)Nc1ncc2c(=O)n(C3CCNCC3)cc([C@H]3CC[C@H](O)CC3)c2n1 [Compound 152] | 1000 to 10000 nM | ≤ 100 nM | +++ (a ratio of >100)
CCCC(C)Nc1ncc2c(NC3CCN(C)CC3)ncc([C@H]3CC[C@H](O)CC3)c2n1 (stereo partly drawn) [Compound 154] | 100 to 1000 nM | ≤ 100 nM | +++ (a ratio of >100)
CCCC(C)Nc1ncc2c(N3CCC(NC)CC3)ncc([C@H]3CC[C@H](O)CC3)c2n1 (stereo partly drawn) [Compound 155] | 1000 to 10000 nM | ≤ 100 nM | +++ (a ratio of >100)
CCCC(C)Nc1ncc2c(N3CC[C@@H](N(C)C)C3)ncc([C@H]3CC[C@H](O)CC3)c2n1 (stereo partly drawn) [Compound 156] | 1000 to 10000 nM | ≤ 100 nM | ++ (a ratio of between 10 and 100)
CCCC(C)Nc1ncc2c(OC[C@H]3CC[C@@H](O)CC3)ncc([C@H]3CC[C@H](O)CC3)c2n1 (stereo partly drawn) [Compound 157] | 1000 to 10000 nM | ≤ 100 nM | ++ (a ratio of between 10 and 100)
CCCC(C)Nc1ncc2c(N3CC[C@H](N(C)C)C3)ncc([C@H]3CC[C@H](O)CC3)c2n1 (stereo partly drawn) [Compound 159] | 1000 to 10000 nM | ≤ 100 nM | ++ (a ratio of between 10 and 100)
CCCC(C)Nc1ncc2c(OC[C@H]3CC[C@H](O)CC3)ncc([C@H]3CC[C@H](O)CC3)c2n1 (stereo partly drawn) [Compound 160] | 1000 to 10000 nM | ≤ 100 nM | +++ (a ratio of >100)
CCCC(C)Nc1ncc2c(OC3CC(C)(C)N(C)C(C)(C)C3)ncc([C@H]3CC[C@H](O)CC3)c2n1 (stereo partly drawn) [Compound 161] | 100 to 1000 nM | ≤ 100 nM | +++ (a ratio of >100)
CCCC(C)Nc1ncc2c(NC3CCN(C(=O)C(F)(F)F)CC3)ncc([C@H]3CC[C@H](O)CC3)c2n1 (stereo partly drawn) [Compound 165] | 100 to 1000 nM | ≤ 100 nM | +++ (a ratio of >100)
CCCC(C)Nc1ncc2c(=O)n(CCN(C)C)cc([C@H]3CC[C@H](O)CC3)c2n1 (stereo partly drawn) [Compound 169] | 1000 to 10000 nM | ≤ 100 nM | +++ (a ratio of >100)
CCCC(C)Nc1ncc2c(OC3CCN(CCC(=O)N(C)C)CC3)ncc([C@H]3CC[C@H](O)CC3)c2n1 (stereo partly drawn) [Compound 170] | 1000 to 10000 nM | ≤ 100 nM | +++ (a ratio of >100)
CCCC(C)Nc1ncc2c(OC3CCN(CC(=O)N(C)C)CC3)ncc([C@H]3CC[C@H](O)CC3)c2n1 (stereo partly drawn) [Compound 172] | 1000 to 10000 nM | ≤ 100 nM | +++ (a ratio of >100)
CCCC(C)Nc1ncc2c(OC3CCN(CCOC)CC3)ncc([C@H]3CC[C@H](O)CC3)c2n1 (stereo partly drawn) [Compound 173] | 1000 to 10000 nM | ≤ 100 nM | +++ (a ratio of >100)
CCCC(C)Nc1ncc2c(O[C@@H]3C[C@H]4CC[C@@H](C3)O4)ncc([C@H]3CC[C@H](O)CC3)c2n1 (stereo partly drawn) [Compound 174] | 1000 to 10000 nM | ≤ 100 nM | ++ (a ratio of between 10 and 100)
CCCC(C)Nc1ncc2c(O[C@H]3C[C@H]4CC[C@@H](C3)O4)ncc([C@H]3CC[C@H](O)CC3)c2n1 (stereo partly drawn) [Compound 175] | 100 to 1000 nM | ≤ 100 nM | ++ (a ratio of between 10 and 100)
CCCC(C)Nc1ncc2c(O[C@H]3C[C@@H](O)C3)ncc([C@H]3CC[C@H](O)CC3)c2n1 (stereo partly drawn) [Compound 176] | 100 to 1000 nM | ≤ 100 nM | +++ (a ratio of >100)
CCCC(C)Nc1ncc2c(=O)n(CCN3CCOCC3)cc([C@H]3CC[C@H](O)CC3)c2n1 (stereo partly drawn) [Compound 177] | 1000 to 10000 nM | ≤ 100 nM | +++ (a ratio of >100)
CCCC(C)Nc1ncc2c(N(C)C3CCNCC3)ncc([C@H]3CC[C@H](O)CC3)c2n1 (stereo partly drawn) [Compound 179] | 1000 to 10000 nM | ≤ 100 nM | ++ (a ratio of between 10 and 100)
CCCC(C)Nc1ncc2c(N3CCC[C@H](N(C)C)C3)ncc([C@H]3CC[C@H](O)CC3)c2n1 (stereo partly drawn) [Compound 180] | 1000 to 10000 nM | ≤ 100 nM | +++ (a ratio of >100)
CCCC(C)Nc1ncc2c(N3CC(N(C)C)C3)ncc([C@H]3CC[C@H](O)CC3)c2n1 (stereo partly drawn) [Compound 181] | 1000 to 10000 nM | ≤ 100 nM | ++ (a ratio of between 10 and 100)
CCCC(C)Nc1ncc2c(OCCN3CCOCC3)ncc([C@H]3CC[C@H](O)CC3)c2n1 (stereo partly drawn) [Compound 182] | 100 to 1000 nM | ≤ 100 nM | ++ (a ratio of between 10 and 100)

Now from value to compound:

IC50 (FLT3) | IC50 (MERTK) | Mer/Flt3 ratio (FLT3 IC50/Mer IC50) (MERTK) | Structure (SMILES)
1000 to 10000 nM | ≤ 100 nM | +++ (a ratio of >100) | CCCC(C)Nc1ncc2c(OC3CCC(F)(F)CC3)ncc([C@H]3CC[C@H](O)CC3)c2n1 (stereo partly drawn) [Compound 153]
100 to 1000 nM | ≤ 100 nM | +++ (a ratio of >100) | CCCC(C)Nc1ncc2c(NC3CCNCC3)ncc([C@H]3CC[C@H](O)CC3)c2n1 (stereo partly drawn) [Compound 158]
1000 to 10000 nM | 1000 to 10000 nM | + (a ratio of >2.0 and <10) | CN1CCC(Nc2ncc3c(OC4CCNCC4)ncc([C@H]4CC[C@H](O)CC4)c3n2)C1=O (stereo partly drawn) [Compound 162]
1000 to 10000 nM | 1000 to 10000 nM | + (a ratio of >2.0 and <10) | Cc1nccn1CCNc1ncc2c(OC3CCNCC3)ncc([C@H]3CC[C@H](O)CC3)c2n1 [Compound 163]
1000 to 10000 nM | ≤ 100 nM | ++ (a ratio of between 10 and 100) | O[C@H]1CC[C@H](c2cnc(OC3CCNCC3)c3cnc(NC4CCC(F)(F)CC4)nc32)CC1 [Compound 164]
100 to 1000 nM | ≤ 100 nM | +++ (a ratio of >100) | CCCC(C)Nc1ncc2c(OC3CCNCC3)ncc([C@H]3CC[C@H](O)CC3)c2n1 (stereo partly drawn) [Compound 166]
≤ 100 nM | ≤ 100 nM | ++ (a ratio of between 10 and 100) | CC1CC(Nc2ncc3c(OC4CCNCC4)ncc([C@H]4CC[C@H](O)CC4)c3n2)C1 (stereo partly drawn) [Compound 167]
100 to 1000 nM | ≤ 100 nM | ++ (a ratio of between 10 and 100) | CC1CC(Nc2ncc3c(OC4CCNCC4)ncc([C@H]4CC[C@@H](O)CC4)c3n2)C1 (stereo partly drawn) [Compound 168]
100 to 1000 nM | ≤ 100 nM | +++ (a ratio of >100) | CCC[C@H](C)Nc1ncc2c(OC3CCNCC3)ncc([C@H]3CC[C@H](O)CC3)c2n1 [Compound 171]
1000 to 10000 nM | ≤ 100 nM | +++ (a ratio of >100) | CC(C)C(C)Nc1ncc2c(OC3CCNCC3)ncc([C@H]3CC[C@H](O)CC3)c2n1 (stereo partly drawn) [Compound 178]
